Laboratory results: patent publication US20240277666A1, “Combination Treatments for Cancer Patients and Methods for Identifying Same” (Scandion Oncology A/S, priority 2021, published 2024)

Key:
UGT1A1 [1] = biological target: T1, UGT1A1 (Homo sapiens, UniProt P22309); assay: in vitro UGT1A1 inhibition assay; assay type: biochemical; settings: read-out: IC50 towards UGT1A1
T1 sequence (P22309 26-533): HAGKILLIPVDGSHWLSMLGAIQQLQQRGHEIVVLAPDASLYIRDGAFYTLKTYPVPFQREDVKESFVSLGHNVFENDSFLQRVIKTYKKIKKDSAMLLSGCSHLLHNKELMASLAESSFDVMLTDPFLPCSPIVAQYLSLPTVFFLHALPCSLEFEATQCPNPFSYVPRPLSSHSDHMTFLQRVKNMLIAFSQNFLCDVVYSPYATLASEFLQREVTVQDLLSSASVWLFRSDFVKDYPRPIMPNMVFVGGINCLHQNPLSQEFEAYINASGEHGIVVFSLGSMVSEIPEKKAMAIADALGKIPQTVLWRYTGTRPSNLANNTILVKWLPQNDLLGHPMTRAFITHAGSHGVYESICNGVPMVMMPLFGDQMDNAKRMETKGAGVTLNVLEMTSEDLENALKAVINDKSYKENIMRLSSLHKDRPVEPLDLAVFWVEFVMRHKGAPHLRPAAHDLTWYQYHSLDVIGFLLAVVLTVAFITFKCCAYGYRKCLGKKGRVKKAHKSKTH
From the text: The term “UGT1A1 inhibitor” as used herein refers to a molecule which is capable of binding to the enzyme uridine diphosphate (UDP)-glycuronosyl transferase (UGT1A1) and decrease the enzymatic activity of UGT1A1. The UGT1A1 enzyme, primarily found in the liver, is responsible for the gluronidation of bilirubin, converting it from the toxic form of bilirubin (unconjugated bilirubin) to its nontoxic, water-soluble form (conjugated bilirubin). Whether or not a particular molecule is an UGT1A1 inhibitor can be determined by examining the molecule's IC50 in vitro in common UGT1A1 inhibition assays. […] In one embodiment, the IC50 is 5 μM or less, such as 4 μM or less, such as 3 μM or less, such as 2 μM or less, for example between 0.1 μM and 2.0 μM. […] In some embodiments, the UGT1A1 inhibitor of the present disclosure is a non-competitive UGT1A1 inhibitor. In some embodiments, the UGT1A1 inhibitor is a competitive UGT1A1 inhibitor. In one embodiment, the UGT1A1 inhibitor is also SRPK1 inhibitor and/or an ABCG2 inhibitor.

UGT1A1 [2] = biological target: T1, UGT1A1; assay: Clinical study of SCO-101 with FOLFIRI: serum bilirubin / bilirubin index as surrogate of UGT1A1 activity; assay type: in vivo; set-up: from tissue; host or cells: patients in vivo (enzyme primarily in the liver); settings: for mean bilirubin index score (day 12 / day 7 bilirubin serum concentration): cohort 1 (150 mg SCO-101), cycle 1; for highest bilirubin index score / lowest bilirubin index score: cohort 1, cycle 1
Experimental: The term “bilirubin index” as used herein or “bilirubin index score” which are used interchangeably, refer to a patient's rate of bilirubin normalization subsequent to administration of an UGT1A1 inhibitor to the patient. Herein, the bilirubin index is determined subsequent to administration of an UGT1A1 inhibitor to the patient for a number of consecutive days, such as 1, 2, 3, 4, 5, or 6, preferably 6 days. In some embodiments, based on 6 consecutive days of administration with an UGT1A1 inhibitor, the bilirubin index can be determined as the bilirubin serum concentration (unconjugated or total bilirubin) on day 12 divided with the bilirubin serum concentration on day 7 and thus is an indicator of how much the patients' UGT1A1 activity has normalized following cessation of treatment with the UGT1A1 inhibitor, such as SCO-101, and can be determined using bilirubin as a surrogate marker. Based on 6 consecutive days of administration with an UGT1A1 inhibitor, the bilirubin index is determined as the bilirubin serum concentration (unconjugated or total bilirubin) on day 12 divided with the bilirubin serum concentration on day 7 and thus is an indicator of how much the patients' UGT1A1 activity has normalized following cessation of SCO-101 treatment, and can be determined using bilirubin as a surrogate marker. In some embodiments, the bilirubin index is determined by comparison on bilirubin serum concentrations obtained from other days than day 7 and day 12. The bilirubin index is also referred to herein as the CT2/CT1 ratio, wherein CT1 is the plasma concentration of unconjugated bilirubin in the patient at a time point T1, whereas CT2 is the plasma concentration of unconjugated bilirubin in the patient at a time point T2 which is after discontinuing administration of the UGT1A1 inhibitor.
Bilirubin: Blood sampling for analysis of bilirubin (total, unconjugated and conjugated) were withdrawn at Screening (up to 4 weeks prior start of treatment), day 5, day 7 and day 12 in the first treatment cycle.
UGT1A1 is the primary enzyme responsible for conjugation of bilirubin and metabolism of Irinotecan's active metabolite SN-38.

- IC50 (UGT1A1 [1]): 700 to 1900 nM
- effect on unconjugated bilirubin serum concentration (UGT1A1 [2]; cancer patients, SCO-101 daily days 1-6): specific and dose dependent increase
- reversibility of UGT1A1 inhibition / bilirubin increase after discontinuation of SCO-101 (UGT1A1 [2]; cancer patients, blood bilirubin after last SCO-101 treatment): completely reversible
- bilirubin index of patients with RAS mutation (UGT1A1 [2]; cohort 1, cycle 1, day 12 / day 7): above 0.4
- mean bilirubin index score (day 12 / day 7 bilirubin serum concentration) (UGT1A1 [2]; six RAS mutated patients): 0.59
- highest bilirubin index score (UGT1A1 [2]; six RAS mutated patients): 0.76
- lowest bilirubin index score (UGT1A1 [2]; six RAS mutated patients): 0.25
- mean bilirubin index score (day 12 / day 7 bilirubin serum concentration) (UGT1A1 [2]; six RAS wild type patients): approximately 0.15
- highest bilirubin index score (UGT1A1 [2]; six RAS wild type patients): 0.28
- lowest bilirubin index score (UGT1A1 [2]; six RAS wild type patients): 0.04
SMILES: O=C(Nc1cc(C(F)(F)F)cc(C(F)(F)F)c1)Nc1ccc(Br)cc1-c1nnn[nH]1 [SCO-101]
